Data from patent US20070037785A1, “Novel dipeptidyl peptidase IV inhibitors used for functionally influencing different cells and treating immunological, infammatory, neuronal, and other diseases” (priority 2003, published 2007).

Each molecule was assayed against dipeptidyl peptidase IV (Homo sapiens, UniProt P27487) (assay: biochemical). Conditions: values marked with "*" are ID50 values; read-out: IC50DPIV, values marked with "*" = ID50.
Sequence of dipeptidyl peptidase IV (P27487 whole entry, species assumed): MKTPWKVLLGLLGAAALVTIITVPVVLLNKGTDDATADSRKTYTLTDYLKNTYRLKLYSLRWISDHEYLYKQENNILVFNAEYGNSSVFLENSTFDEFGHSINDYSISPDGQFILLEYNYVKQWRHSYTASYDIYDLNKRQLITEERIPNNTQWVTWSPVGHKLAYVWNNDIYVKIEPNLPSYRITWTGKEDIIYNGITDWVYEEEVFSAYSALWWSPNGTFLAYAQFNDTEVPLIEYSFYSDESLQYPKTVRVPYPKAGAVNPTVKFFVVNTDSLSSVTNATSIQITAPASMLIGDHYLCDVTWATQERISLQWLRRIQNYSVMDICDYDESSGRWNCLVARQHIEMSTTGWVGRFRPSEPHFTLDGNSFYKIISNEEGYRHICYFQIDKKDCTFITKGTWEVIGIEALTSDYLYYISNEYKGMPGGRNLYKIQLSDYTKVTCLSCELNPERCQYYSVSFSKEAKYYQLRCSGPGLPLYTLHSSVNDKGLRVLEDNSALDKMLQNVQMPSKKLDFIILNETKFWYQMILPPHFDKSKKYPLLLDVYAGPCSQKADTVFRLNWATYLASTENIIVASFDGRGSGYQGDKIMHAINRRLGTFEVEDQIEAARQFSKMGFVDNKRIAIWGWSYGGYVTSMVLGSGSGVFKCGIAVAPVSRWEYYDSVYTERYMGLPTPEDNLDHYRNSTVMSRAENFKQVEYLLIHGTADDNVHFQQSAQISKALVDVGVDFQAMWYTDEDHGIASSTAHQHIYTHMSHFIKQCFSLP

IC50 [µM] | SMILES
225 | CCCN(CCC)c1ccc(/C=N/NC(=O)COc2ccc(C)cc2[N+](=O)[O-])cc1 [D10.124]
177 | O=C(COc1c(O)cc(Br)cc1Br)N/N=C/c1ccc(O)c(O)c1 [D10.119]
656 | O=C(N/N=C/c1cccc(OC(=O)c2ccccc2Cl)c1)/C(=C\c1ccc2c(c1)OCO2)NC(=O)c1ccccc1 [D10.143]
133 | CCOC(=O)O/N=C(N)/C(N)=N/OC(=O)OCC [D2.006]
63.5 | O=C(Cn1c2ccccc2c(=O)c2ccccc21)N/N=C/c1ccc(O)c(O)c1 [D10.092]
4.2 | CCC(=O)Oc1cccc(N2C(=O)C3C4C=CC(C3C2=O)C2C(=O)N(c3cccc(OC(=O)CC)c3)C(=O)C42)c1 (centres unmarked) [D4.006]
216 | O=C1CSCC(=O)N1c1ccc(F)cc1F [D4.100]
208 | C/C(=N\NC(=O)CNC(=O)c1ccc(Cl)cc1)c1ccc2ccccc2c1 [D10.122]
2 | COc1cc(/C=N/NC(=O)c2cc(O)c(O)c(O)c2)cc(Br)c1OCc1ccccc1Cl [D10.002]
402 | Nc1ccc(C(=O)NNC(=O)c2ccc(N3C(=O)c4ccc(C(=O)NNC(=O)c5ccc([N+](=O)[O-])cc5)cc4C3=O)cc2)cc1 [D3.117]
3.1 | COc1ccc(N2C(=O)CSCC2=O)cc1OC [D4.004]
166 | Cc1cc(Cl)ccc1OC(C)C(=O)N/N=C1/C(=O)Nc2ccc([N+](=O)[O-])cc21 (centres unmarked) [D10.118]
103 | CCOc1cccc(/C=N\NC(=O)c2ccco2)c1O [D10.107]
275 | Cc1ccccc1NC(=O)C(=O)N/N=C/c1cccc(Cl)c1 [D2.008]
114 | O=C(N/N=C/c1cc(Br)cc(Br)c1OC(=O)c1ccccc1)/C(=C/c1cccs1)NC(=O)c1ccccc1 [D10.110]
269 | CSc1nc2sc3c(c2c2nnc(SCc4cccc(OC(C)C)c4)n12)CC(C)(C)OC3 [D3.108]

SMILES | IC50 [µM]
CC1(C)NCC(c2ccccc2)CC1O (centres unmarked) [D4.088] | 96.2
O=C(Nc1cccc(/N=C/c2cc(/N=N\c3ccccc3Cl)ccc2O)c1)c1ccco1 [D6.003] | 2.5
Cc1cccc(NCC(=O)N/N=C/c2cc(Br)c(O)c(O)c2Br)c1 [D10.094] | 65.5

Same assay, conditions: values without "*" = IC-50; read-out: IC50DPIV

IC50 [µM] | SMILES
81.4 | N#Cc1ccc(/C=N/NC(=O)c2cc([N+](=O)[O-])ccc2O)cc1 [D10.098]
32.9 | CC(=O)Oc1ccc(-c2ccc(/C=N/NC(=O)C34CC5CC(C3)CC(c3ccc(C)cc3)(C5)C4)cc2)cc1 [D10.052]
110 | COc1cccc(/C=N/NC(=O)c2cc(-c3cccc([N+](=O)[O-])c3)n[nH]2)c1O [D10.108]
48.3 | Cn1c(=O)n(Cc2ccccc2)c(=O)c2c1nc(N1CCNCC1)n2Cc1ccccc1 [D5.034]
33.4 | O=C1/C(=N\NC(=S)Nc2ccccc2F)c2cc(S(=O)(=O)N3CCOCC3)ccc2N1Cc1ccc(Cl)cc1 [D2.004]
33.4 | C/C(=N\NC(=O)/C(=C\c1ccc(F)cc1)NC(=O)c1ccccc1)c1ccccc1O [D10.055]
58.7 | COc1cc(/C=N/NC(=O)c2ccccc2OC(C)C)ccc1O [D10.087]
17.9 | CCOC(=O)n1ccc(C(=O)Nc2ccccc2F)n1 [D6.026]
12.7 | COc1c(OC(C)=O)ccc(/C=N/NC(=O)CNc2cccc(C)c2)c1[N+](=O)[O-] [D10.019]
88.8 | COc1ccc(NS(=O)(=O)c2ccc(/N=C/c3cc(Br)cc(Br)c3O)cc2)nn1 [D9.010]
12.3 | COc1ccccc1/C=N/NC(=O)c1cccc([N+](=O)[O-])c1 [D10.017]
44.3 | COC(=O)O/N=C(/N)c1nonc1N [D11.011]
30.8 | CCCn1c(N2CCN(CC(=O)c3c[nH]c4ccccc34)CC2)nc2c1c(=O)[nH]c(=O)n2C [D12.012]
15.2 | CCCn1c(N2CCN(CC(=O)c3c(C)n(C)c4ccccc34)CC2)nc2c1c(=O)[nH]c(=O)n2C [D6.019]
20.4 | CCN(CC)c1ccc(/C=C(/NC(=O)c2ccccc2)C(=O)N/N=C/c2c(C)c(Br)c(O)c(Br)c2O)cc1 [D10.037]
52.9 | CC(C)(C)CC(C)(C)c1ccc(OCC(=O)N/N=C/c2ccc(OC(=O)c3ccco3)c([N+](=O)[O-])c2)cc1 [D10.074]
10.1 | Nc1nonc1-n1nnc(C(=O)NN=C2c3ccccc3-c3ccccc32)c1-c1ccccc1 [D6.013]
34.1 | O=C1NCCCCC1Nc1ccc(N2C(=O)CCCC2=O)cc1[N+](=O)[O-] (centres unmarked) [D1.003]
55.7 | C/C(=N\NC(=O)c1cc(C(C)(C)C)n[nH]1)c1ccc(Cl)cc1 [D10.081]
32.1 | COc1cc(Br)cc(Br)c1OCC(=O)N/N=C/c1ccc(O)c([N+](=O)[O-])c1 [D10.050]
15.2 | Cc1ccccc1N1C(=O)c2sc3nc4c(c(=O)n3c2C1=O)CCC4 [D3.020]
43.1 | O=C1NC23NC(=O)NC2(N1)c1ccccc1-c1ccccc13 (centres unmarked) [D3.057]

IC50 [µM] | SMILES
59.4 | CC(=O)Oc1ccc2oc(=O)c3c(c2c1)CCCN3C(C)=O [D12.029]
30 | Cc1[nH]c2ccccc2c1/C=N/OC(=O)C1CC1 [D11.008]
15.2 | CCCC(=O)O/N=C1\C(=O)N(c2ccccc2)c2ccccc21 [D4.020]
24.2 | O=C(N/N=C\c1cccc(OC(=O)c2ccc([N+](=O)[O-])cc2)c1)/C(=C/c1ccc2c(c1)OCO2)NC(=O)c1ccccc1 [D10.043]
23.8 | CCC(=O)Oc1ccc(C(=O)Nc2ccc(OCC(=O)O)cc2)cc1 [D3.025]
40.5 | CS(=O)(=O)N1CCN(C(=O)Nc2ccc(C(F)(F)F)cc2)C1C(=O)NCc1cccc(N)c1 (centres unmarked) [D9.007]
5.7 | CCC(O)(CC)C(=O)NNc1ccccc1C [D14.003]
18.2 | O=C(CNc1ccc2ccccc2c1)N/N=C1/C(=O)Nc2ccc([N+](=O)[O-])cc21 [D10.032]
18.9 | CC(C)C1Cc2c(sc3c2c(=O)n(Cc2ccccc2)c2nnc(SCC(=O)O)n32)CO1 (centres unmarked) [D3.024]
31.9 | O=C(COc1cccc(Cl)c1)N/N=C/c1ccc(O)c([N+](=O)[O-])c1 [D10.049]
40.4 | COc1ccc(C(=O)N/N=C/c2ccc(Cl)cc2Cl)cc1 [D10.063]
15.2 | CCCC(=O)O/N=C1/C(=O)N(c2ccccc2)c2ccccc21 [D11.006]
46.7 | Cc1cccc(C(=O)N/N=C/c2c(O)ccc3ccccc23)c1 [D10.072]
15.2 | CCCn1c(N2CCN(CC(=O)c3c(C)n(C)c4ccccc34)CC2)nc2c1c(=O)[nH]c(=O)n2C [D3.027]
10.1 | Cc1cccc(-n2c(=O)c3c4c(sc3n3c(CC(C)C(=O)N5CCOCC5)nnc23)COC(C(C)C)C4)c1 (centres unmarked) [D6.012]
24.1 | O=C(N/N=C/c1cc(Br)ccc1OC(=O)c1ccco1)/C(=C\c1cccs1)NC(=O)c1ccccc1 [D10.042]
17.8 | COc1ccc2ccccc2c1/C=N/NC(=O)c1cc2ccccc2cc1O [D10.031]
21 | NS(=O)(=O)c1ccc(N2C(=O)CCCC2=O)cc1 [D4.030]
52.3 | O=C(Cn1c2ccccc2c(=O)c2ccccc21)N/N=C/c1cc(I)c(O)c([N+](=O)[O-])c1 [D10.073]
59.1 | COc1cc2c(cc1OC)CC1(CCCC1)N=C2 [D3.077]
45.6 | COc1ccc(Br)cc1/C=N/NC(=O)COc1ccc(C)cc1[N+](=O)[O-] [D10.068]

SMILES | IC50 [µM]
CC1=C(C#N)C(=O)N(CC(C)O)C(=O)/C1=C/c1ccc(-c2ccc(Br)cc2)o1 (centres unmarked) [D4.080] | 73.8
O=C1c2ccc(Oc3ccc([N+](=O)[O-])cc3[N+](=O)[O-])cc2C(=O)N1c1ccccc1 [D4.028] | 20.6
O=[N+]([O-])c1ccc(C2OCN3COCC23)cc1 (centres unmarked) [D3.095] | 42.4
O=C(N/N=C/c1cc(Br)c(O)c(Br)c1O)/C(=C\c1ccc2c(c1)OCO2)NC(=O)c1ccccc1 [D3.081] | 60
CCOC(=O)c1c(C)oc2c1c1c(c3ccccc32)OCN(C2CCS(=O)(=O)C2)C1 (centres unmarked) [D12.017] | 34.2
CCOC(=O)c1c(C)oc2c1c1c(c3ccccc32)OCN(C2CCS(=O)(=O)C2)C1 (centres unmarked) [D9.006] | 34.2
CC1CCN(C(=O)/C(=C\c2ccco2)NC(=O)c2ccc(Cl)cc2)CC1 [D6.027] | 18.5
COc1cc(Br)ccc1OCC(=O)N/N=C/c1cc(O)c(O)c(Br)c1Br [D10.013] | 10.2
COc1cc2c(cc1OC)C13CCN4CC5=C(C6=C7CN8CCC9%10c%11cc(OC)c(OC)cc%11N%11C(=O)CC(O6)C(C7CC89)C%11%10)OC6CC(=O)N2C1C6C5CC43 (centres unmarked) [D3.029] | 22.9
CC1=C(C#N)C(=O)N=C(O)/C1=C\c1ccc(-c2ccc(Cl)cc2Cl)o1 [D4.087] | 95.8
COc1cc(Br)cc(Br)c1OCC(=O)N/N=C/c1cc(O)c(O)c(Br)c1Br [D10.010] | 9.1
CC1CCc2c(sc(NC(=O)C(C(F)(F)F)C(F)(F)F)c2C#N)C1 (centres unmarked) [D6.083] | 59.8

Each molecule was assayed on Dextran Sulfate-induced Colitis of Mice (assay: Dextran sulfate-induced colitis of mice, disease score). Conditions: 10 pg single inhibitor i.p. on three successive days from day 5; day 7; slight, but insignificant.
Assay type: in vivo, Balb/c mice

SMILES | reduction of the heaviness of the disease (score) [%]
CCCCC[C@H](CC(=O)NO)C(=O)N[C@H](C(=O)N1CCC[C@H]1CO)C(C)C [Actinonine] | −16.5

The molecules below were run on Ovalbumine-induced Asthma Bronchiale of Mice (assay: Ovalbumine-induced asthma bronchiale of mice, pulmonal function (EF50)). Conditions: 0.1 mg (of each) inhibitor i.p. on days 28-35; FIG. 3A.
Assay type: in vivo, Balb/c Mice
Source text: Therapeutic Effect of the Combined Inhibition of Dipeptidyl Peptidase IV and of Enzymes Having an Analogous Effect as well as of the Alanyl Aminopeptidase and of Enzymes Having an Analogous Effect on the Ovalbumine-induced Asthma Bronchiale of Mice (Animal Model of Human Asthma Bronchiale).
Female Balb/c Mice were sensitized for the antigen ovalbumine capable of inducing asthma bronchiale by an intreperitoneal administration of […] ovalbumine on the days 0, 14 and 21. On day 27/28, the animals received a boostering dose of ovalbumine by inhalation [vD3]. After an intreperitoneal administration of the peptidase inhibitors on the days 28-35, there was effected an intranasal ovalbumine challenge on day 35, as well as a check of the allergic premature reaction via the pulmonal function. There were measured: the average expiratory flux (EF50), the tidal volume, the respiration rate and the minute volume as well as the number of eosinophilic granulocytes in the bronchoalveolar lavage. 8 to 10 animals were used per experimental group. By way of example, in FIG. 3A, there is summarized the effect of the peptidase inhibitors on the reduction of the EF50 value. […] Group E represents animals which were not sensitized by OVA, but which were subjected—beyond that—all procedures to which the animal groups A to D were subjected.

SMILES | therapeutic effect on the reduction of the EF50 value
N[C@@H](CCCCNC(=O)OCc1ccc([N+](=O)[O-])cc1)C(=O)N1CCCC1 [Lys[Z(NO2)] pyrrolidide] | showed a therapeutic effect
CCCCC[C@H](CC(=O)NO)C(=O)N[C@H](C(=O)N1CCC[C@H]1CO)C(C)C [Actinonine] | showed a therapeutic effect
